Paper PMC5238392, “Origin of anti-tumor activity of the cysteine-containing GO peptides and further optimization of their cytotoxic properties” (Scientific Reports, 2017)
Read-outs that look alike come from different tables or passages of the source.

Columns and labels:
[1] = tested on: human fibrosarcoma cell line HT-1080; type: cell-based; settings: HT-1080
[2] = tested on: ZR-75-1 cell line; test: H2DCFDA intracellular ROS measurement, ZR-75-1; type: cell-based, human; settings: 10 μM, 30 min incubation, control 100 ± 11, mean and SD, below statistical significance
Experimental: Having established these premises, we repeated the measurements using the ROS-sensitive probe H2DCFDA instead of DCFDA. We have observed small, but statistically significant difference between the HT-1080 cells treated by GO-203 and control cells. Specifically, 30 min after application of the peptide the fluorescence signal from the treated cells was ca. 20% lower than the control, 82 ± 6 vs. 100 ± 7 (arbitrary units). The drop in fluorescence from cells that have been treated with GO-203 should be unequivocally attributed to the decreased level of ROS. The effect is small and unlikely to be the source of GO-203 cytotoxic activity. […] The detected drop in ROS level was below the level of statistical significance, 98 ± 3 vs. 100 ± 11 (see Fig. S3). […]
The cells were seeded into 35-mm Nunc culture dishes (Thermo Scientific, USA) at 1.2 × 10^5 cells per dish and allowed to attach for 24 h. […] After that GO-203 was added directly to the suspension and cell fluorescence was measured by flow cytometry at multiple time points during the following 2 hours. […] Cell fluorescence was then immediately measured by flow cytometry. […]
Cell fluorescence was measured using CytoFLEX (Beckman Coulter, USA) flow cytometer equipped with 3 lasers (405, 488 and 633 nm). […] Mean fluorescence intensity from 10,000 cells was acquired. […]

[3] = tested on: primary culture of human dermal fibroblasts (DF); test: MTS cell viability assay, dermal fibroblasts
Experimental: (§1) As a next step, we used MTS assay[27] to examine the effect of GO peptides on the viability of the four described cell cultures as a function of different treatment schemes. […] This treatment regimen is labeled 4 × 5 underneath the graph. Alternatively, we introduced 5 μM of peptide daily while exchanging the medium (denoted 4/5). Unlike the previous protocol, it avoids potential build-up of the peptide in the medium.
(§2) The treatment protocols are: 4 × 5 – four daily doses of 5 μM delivered without exchanging the growth medium; 4/5 – four daily doses of 5 μM delivered with exchanged growth medium; 1 × 5, 1 × 10, 1 × 15, and 1 × 20 – a single dose of 5, 10, 15, or 20 μM, respectively. MTS reagent was added to the wells 96 h after the first (and sometimes the only) application of the peptide and the optical density at 492 nm was measured to determine the fraction of the surviving cells.
As a next step, we set out to test the cytotoxic effect of these peptides on the normal cells.
(§3) Cell survival was measured using CellTiter 96 AQueous One Solution Cell Proliferation Assay (MTS test, Promega, USA). Cells have been seeded in a 96-well flat-bottom plate in 100 μl of culture medium (10^3 cells/well for A549, HT-1080, dermal fibroblasts and eMSC or 5 × 10^3 cells/well for ZR-75-1) and allowed to attach for 24 h. The starting amount of cells was chosen to account for their growth rate and degree of spreading such as to avoid excessive dilution in the beginning of the experiment or control cell overgrowth toward the end. After 24 h, 10 μl of peptide stock solution or PBS (control) were added to the wells. After 96 h, 20 μl of the MTS-reagent were added to each well and 1–2 h later optical density was measured at the wavelength 492 nm using the 96-well plate reader (Titertek Multiskan, Labsystems, Finland). All experiments were conducted in duplicate or triplicate.

[4] = tested on: HT-1080 cells; test: Time-lapse microscopy and side angle light scatter, HT-1080; type: cell-based, human
Experimental: The data from time-lapse microscopy on HT-1080 cells provide a visual evidence of GO-203-induced apoptosis, Fig. 5 (see also Film S1). […] After 1.5 h we observe the fully developed picture of apoptosis. This is illustrated in the right panel of Fig. 5: three cells in this photograph experience blebbing, while the fourth cell located in the upper right portion of the image has undergone detachment and rounded up (it is soon to enter the blebbing phase). This time line is confirmed by the side angle light scatter data from the flow-cytometry experiment, Fig. 6C. […] This behavior reflects the onset of dynamic blebbing and the concomitant increase in the roughness of the cell surface. In this context it is worth noting that actomyosin cortex contraction and blebbing are subsequent to (and in fact driven by) caspase activation. The condensation of nucleus and cytoplasm in apoptotic cells can also contribute to the increased side scatter.
Figure 5 Time-lapse microscopy of HT-1080 cells. (A) Cells before the addition of the peptide and (B) 1 h 20 min after the addition of 5 μM GO-203.
Figure 6 Dynamics of (A) mitochondrial membrane potential, (B) intracellular ROS levels, and (C) cell refractive properties in suspended HT-1080 cells following the addition of 5 μM GO-203.
The cells were seeded into 35-mm Nunc culture dishes (Thermo Scientific, USA) at 1.2 × 10^5 cells per dish and allowed to attach for 24 h. To monitor intracellular ROS in a time-dependent manner, the cells were incubated for 30 min with 10 μM of carboxy-H2DCFDA (Invitrogen, USA), then harvested with trypsin-EDTA and suspended in a fresh medium. After that GO-203 was added directly to the suspension and cell fluorescence was measured by flow cytometry at multiple time points during the following 2 hours. The same procedure was used for mitochondria-specific fluorescent dye Rhodamine 123 (Thermo Fisher Scientific, USA), which was added to a concentration of 5 μM. The complementary side scatter measurements were conducted using 488 nm laser light. In another series of experiments, we have used the related indicator of oxidative stress, H2DCFDA (Invitrogen, USA). The experiment started by adding GO-203 to the cell growth medium; then 10 min later 5 μM of H2DCFDA has been added. After 20 min incubations with H2DCFDA, the cells were harvested with trypsin-EDTA and suspended in a fresh medium. Cell fluorescence was then immediately measured by flow cytometry. The same procedure was followed for the ROS-insensitive (control) modification of the fluorescent probe, DCFDA.
For live cell microscopy, HT-1080 cells were seeded into 35-mm сell imaging dish with cover glass bottom (Eppendorf, Germany) and allowed to attach for 24 h. The cell response to 5 μM GO-203 exposure was monitored using the Axio Observer. […]

[5] = tested on: human breast carcinoma cell line ZR-75-1; test: MTS cell viability assay, ZR-75-1
Experimental: as §1, §2
The data are according to the MTS assay, where the optical density was measured 96 h after the application of the peptide.
as §3

[6] = 1 × 5: single dose of 5 μM, 96 h
[7] = 4/5: four daily doses of 5 μM with exchanged growth medium, 96 h
[8] = HT-1080, 5 μM, time-lapse microscopy

Substance: [R]9CQCRRKN [GO-203]
- Cell viability (MTS) [1, 6]: essentially inconsequential
- Cell viability (MTS) ([1]; 1 × 10: single dose of 10 μM, 96 h): nearly wipes out
- Cell viability (MTS) [1, 7]: inefficient
- Cell viability (MTS) ([1]; 4 × 5: four daily doses of 5 μM without exchanging growth medium, OD 492 nm 96 h after first application, duplicate or triplicate): essentially complete cell death
- H2DCFDA fluorescence signal (ROS level) [2]: 98 ± 3 arbitrary units
- Cell viability (MTS) ([3]; dermal fibroblasts, 1 × 5: single dose of 5 μM, 96 h): essentially inconsequential
- Cell viability (MTS) ([3]; dermal fibroblasts, 4/5: four daily doses of 5 μM with exchanged growth medium, 96 h): inefficient
- Cell viability (MTS) ([3]; dermal fibroblasts, 4 × 5: four daily doses of 5 μM without exchanging growth medium, OD 492 nm 96 h after first application): essentially complete cell death
- Cell viability (MTS) ([3]; skin (dermal) fibroblasts, 1 × 10: single dose of 10 μM, 96 h): nearly wipes out
- Time to fully developed picture of apoptosis [4, 8]: 1.5 h
- Time to morphological features of apoptosis (cell contraction, membrane blebbing) [4, 8]: within the first hour
- Time at which side angle light scatter starts to rise versus control ([4]; suspended HT-1080 cells, 5 μM, flow cytometry, 488 nm): 30 min
- Onset of apoptosis after application ([4]; treated cells, summary statement): ca. 30 min
- Cell viability (MTS) [5, 6]: essentially inconsequential
- Cell viability (MTS) ([5]; 1 × 20: single dose of 20 μM, 96 h): substantially cytotoxic
- Cell viability (MTS) [5, 7]: inefficient
- Cell viability (MTS) ([5]; 4 × 5: four daily doses of 5 μM without exchanging growth medium, OD 492 nm 96 h after first application): considerable damage
